This is an account of results in the Kinase Knowledgebase extract (Sharma et al. 2016).

Each structure is given as a SMILES string. Some results are limits rather than exact numbers.

Assay [1] concerns the target MAPK14 (UniProt Q16539).
Assay [2] concerns the target MAPK14 (UniProt Q16539). The source holds these as a separate data set.
Assay [3] has as its target MAPK14 (UniProt Q16539). The source holds these as a separate data set.

MAPK14, sequence (Q16539 whole entry, looked up): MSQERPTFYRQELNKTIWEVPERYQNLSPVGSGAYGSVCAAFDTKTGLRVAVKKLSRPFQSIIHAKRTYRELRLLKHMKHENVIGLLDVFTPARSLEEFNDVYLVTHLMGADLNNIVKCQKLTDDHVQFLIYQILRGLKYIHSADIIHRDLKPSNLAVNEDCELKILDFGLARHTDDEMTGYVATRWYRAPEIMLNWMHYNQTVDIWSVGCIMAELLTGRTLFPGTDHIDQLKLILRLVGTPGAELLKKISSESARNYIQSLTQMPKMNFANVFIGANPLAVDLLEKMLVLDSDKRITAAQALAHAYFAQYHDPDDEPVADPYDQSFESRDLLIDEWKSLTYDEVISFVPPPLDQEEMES

What is called IC50 is the midpoint of a concentration-inhibition curve. A higher IC50 goes with weaker potency in that assay. Consider `Cn1nnnc1Sc1cc(-c2c(-c3ccc(F)cc3)ncn2C2CCNCC2)ccn1`, for which the IC50 on MAPK14 [1], with MAPK14 [2] and on MAPK14 [3] was < 50 µM throughout.
For the compound `Cc1ccc(Oc2cc(-c3c(-c4ccc(F)cc4)ncn3C3CCNCC3)ccn2)cc1`, the IC50 on MAPK14 [1] was < 50 µM.
Regarding `Fc1ccc(-c2ncn(C3CCNCC3)c2-c2ccnc(Sc3ccccc3)c2)cc1`, the IC50 at MAPK14 [1] and at MAPK14 [3] was < 50 µM throughout.
As for `Fc1ccc(Oc2cc(-c3c(-c4ccc(F)cc4)ncn3C3CCNCC3)ccn2)cc1`, the IC50 against MAPK14 [1], in the assay with MAPK14 [2] and at MAPK14 [3] was < 50 µM each time.
For the compound `Fc1ccc(-c2ncn(C3CCNCC3)c2-c2ccnc(Oc3ccccc3)c2)cc1`, the IC50 on MAPK14 [1], in the assay with MAPK14 [2] and against MAPK14 [3] was < 50 µM each time.
In the case of `Fc1ccc(-c2ncn(C3CCNCC3)c2-c2ccnc(Oc3ccc(OCc4ccccc4)cc3)c2)cc1`, the IC50 on MAPK14 [1] is < 50 µM.
Regarding `Fc1ccc(-c2ncn(CCCN3CCOCC3)c2-c2ccnc(Oc3ccccc3)n2)cc1`, the IC50 against MAPK14 [1] and with MAPK14 [2] was < 50 µM each time.
Take `Fc1ccc(-c2ncn(C3CCNCC3)c2-c2ccnc(Oc3ccc(Cl)cc3)c2)cc1`: on MAPK14 [1], the IC50 is < 50 µM.
With `Fc1ccc(Oc2nccc(-c3c(-c4ccc(F)cc4)ncn3CCCN3CCOCC3)n2)cc1`, the IC50 with MAPK14 [2] and against MAPK14 [3] was < 50 µM in each case.
Regarding `COc1ccc(Oc2cc(-c3c(-c4ccc(F)cc4)ncn3C3CCNCC3)ccn2)cc1`, the IC50 at MAPK14 [1], in the assay with MAPK14 [2] and on MAPK14 [3] was < 50 µM throughout.
